Laboratory results reported in patent US10080757B2 (WISCONSIN ALUMNI RESEARCH FOUNDATION, priority 2016, dated 2018).
≈ marks a conversion by molar mass, not a printed value. Entries after “also recorded” stand apart in the source; their conditions may differ. Where two headings read alike, the source gives them in different places.

Tests used:
[1] = Aggregation by Dynamic Light Scattering (DLS); assay type: physicochemical; settings: for Aggregates observed?: 50 mM sodium phosphate buffer, 1% DMSO; for Aggregation by DLS: concentrations up to 50 μM
Experimental: A representative subset of the compounds (1, 2, and 4) were evaluated for aggregation by Dynamic Light Scattering (DLS), see Table 1. Samples for DLS analysis were prepared in 50 mM sodium phosphate buffer from DMSO inhibitor stocks, at a final DMSO concentration of 1%, and a range of final concentrations of inhibitor.

recombinant MtbUGM = molecular target: T1, recombinant MtbUGM (Mycobacterium tuberculosis, UniProt P9WIQ1); assay: biochemical; settings: for inhibition at 100 µM: read-out: % inhib MtbUGM (100 μM)
T1 construct: made in house

M. smegmatis [2] = assay: Microplate Alamar Blue Assay (MIC, liquid culture); assay type: cell-based; settings: Mycolicibacterium smegmatis
Experimental: The culture was diluted to OD600=˜0.02 in LB liquid media and added to 96-well plates at a final volume of 100 μL, with added inhibitor concentrations in two-fold dilutions. Perimeter wells were filled with sterile water. After 24 hours at 37° C. in a shaking incubator, 10 μL of the Alamar Blue reagent was added to each well. The plate was incubated for an additional 4 hours at 37° C., at which point fluorescence emission at 585 nm was measured using a plate reader. The lowest inhibitor concentration at which 99% or greater growth inhibition was observed was determined to be the MIC.

CeUGM = CeUGM inhibition; assay type: biochemical, C. elegans
C. elegans [3] = assay: C. elegans growth and proliferation; assay type: in vivo; settings: threshold below which proliferation occurs at decreased rate
From the text: As concentration decreases, each of these compounds reaches a threshold where they no longer prevent worm proliferation, but rather cause retarded growth and development. The concentration that appears to be this threshold is reported above. Below this concentration, C. elegans growth and proliferation occur, but at a decreased rate with visible ill effects to the animal.

C. elegans [4] = assay: Bleach sensitivity assay (time until first rupture); assay type: in vivo; settings: 50 microM; adult worms
Experimental: Compounds were tested at 50 microM. Adult worms (C. elegans) were chosen for testing and time until first rupture was measured when worms were placed in a bleach, sodium hydroxide solution. […] A graph showing results is provided as FIG. 4. Each treatment group has approximately an n=20. The Thompson Tau technique was used to determine statistical outliers.

C. elegans [5] = assay: C. elegans growth and proliferation; assay type: in vivo; settings: for Inhibition of C. elegans proliferation / Effective inhibitor of C. elegans growth at 250 μM: 250 μM; for Prevention of C. elegans maturation to adulthood and eventual proliferation: 100 μM
M. smegmatis [6] = assay: Agar disk diffusion assay; set-up: zone of inhibition: dose or concentration left out as unconfirmed; settings: Mycolicibacterium smegmatis, read-out: Inhibition zone
Experimental: M. smegmatis was grown to saturation over 48 hours at 37° C. in Middlebrook 7H9 media with Albumin Dextrose Catalase (ADC) enrichment and 0.05% Tween80. The culture was diluted to OD600=˜0.2 in LB liquid media and 100 μL of dilute culture was spread onto LB agar plates, then allowed to soak into the agar for 1 hour at room temperature. Sterile disks (3 mm diameter) were impregnated with a solution of inhibitor in DMSO (1.5 μL) and placed on top of the bacterial lawn. […] The plates were incubated for 72 hours at 37° C., at which point a lawn of bacteria was visible. Zones of inhibition were measured as the average diameter of the region around a cloning disk where bacterial growth was not visible. For each disk, three diameter measurements were taken and averaged.

[7] = Aggregation by Dynamic Light Scattering (DLS); assay type: physicochemical; settings: 1% DMSO
[8] = Table 2, standard deviation, n = 3
[9] = Table 3, liquid media, at least 99% growth inhibition
[10] = 50 μM, mean of two replicates, read-out: % inhib MtbUGM (50 μM)
[11] = 50 μM compound (FIG. 1), read-out: Inhibition of MtbUGM activity

T1 sequence (P9WIQ1 whole entry): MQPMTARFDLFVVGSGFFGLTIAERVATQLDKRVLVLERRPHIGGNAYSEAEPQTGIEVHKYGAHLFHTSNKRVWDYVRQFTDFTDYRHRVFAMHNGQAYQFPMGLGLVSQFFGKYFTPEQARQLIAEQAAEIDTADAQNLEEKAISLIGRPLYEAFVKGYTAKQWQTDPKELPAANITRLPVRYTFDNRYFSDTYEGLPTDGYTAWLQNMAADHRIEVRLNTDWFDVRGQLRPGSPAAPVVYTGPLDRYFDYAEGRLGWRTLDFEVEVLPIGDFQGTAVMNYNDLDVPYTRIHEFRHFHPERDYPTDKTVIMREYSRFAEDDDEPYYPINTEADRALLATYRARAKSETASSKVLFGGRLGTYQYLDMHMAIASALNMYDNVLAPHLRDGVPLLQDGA

| SMILES | Aggregates observed? ([1]; Conc. 10 uM) | Aggregates observed? ([1]; Conc. 25 uM) | Aggregates observed? ([1]; Conc. 50 uM) | Aggregates observed? ([1]; Conc. 100 uM) | Aggregation by DLS [1] | IC50 (recombinant MtbUGM; [8]) [µM] | MIC (M. smegmatis [2]; [9]) [µM] | CeUGM % Inhibition at 2.5 μM (CeUGM) [%] | Apparent MIC (μM) to inhibit C. elegans propagation (C. elegans [3]) [µM] | Inhibition of C. elegans proliferation (C. elegans [5]) | Effective inhibitor of C. elegans growth at 250 μM (C. elegans [5]; Table 7) | zone of inhibition (M. smegmatis [6]) [mm] | other results |
| --- | --- | --- | --- | --- | --- | --- | --- | --- | --- | --- | --- | --- | --- |
| O=C(NS(=O)(=O)c1ccccc1)C(Cc1ccc(I)cc1)Nc1nc(-c2ccc(Cl)c(Cl)c2)cs1 (stereo not shown) [Compound 4, 2-((4-(3,4-dichlorophenyl)thiazol-2-yl)amino)-3-(4-iodophenyl)-N-(phenylsulfonyl)propanamide] | No | No | No | Yes | No aggregation was observed | 7 ± 2 | 25 (≈ 16.5 µg/mL) | 92.2 ± 0.2 | 250 | significantly inhibit | Yes | 7.3 ± 0.6 | Time until first rupture in bleach, sodium hydroxide solution (C. elegans [4]): enhances bleach sensitivity significantly; also recorded: statistically significant decrease |
| O=C(CC1Sc2nnc(Cc3ccc(Br)cc3)n2N=C1c1ccc(Cl)cc1)NS(=O)(=O)c1ccccc1 (stereo not shown) [Compound 13, 2-(3-(4-bromobenzyl)-6-(4-chlorophenyl)-7H-[1,2,4]triazolo[3,4-b][1,3,4]thiadiazin-7-yl)-N-(phenylsulfonyl)acetamide] | – | – | – | – | – | – | – | – | 250 | significantly inhibit | – | – | inhibition at 50 µM (recombinant MtbUGM; [10]): 92%; inhibition at 100 µM (recombinant MtbUGM; mean of two replicates): 94%; IC50 (recombinant MtbUGM; Table 4): 19 ± 6 µM; MIC (M. smegmatis [2]; Table 4): 125 µM (≈ 77.1 µg/mL); CeUGM % Inhibition at 10 μM (CeUGM; 10 μM): 91.7 ± 0.5%; Effective inhibitor of C. elegans growth at 250 μM (C. elegans [5]; Table 8): Yes |
| O=C(NS(=O)(=O)c1ccccc1[N+](=O)[O-])C(Cc1ccc(I)cc1)Nc1nc(-c2ccc(Cl)c(Cl)c2)cs1 (stereo not shown) [Compound 9, 2-((4-(3,4-dichlorophenyl)thiazol-2-yl)amino)-3-(4-iodophenyl)-N-((2-nitrophenyl)sulfonyl)propanamide] | – | – | – | – | – | 2 ± 1 | 12.5 (≈ 8.79 µg/mL) | 92.1 ± 1.0 | 125 | significantly inhibit | Yes | 5.7 ± 0.1 | – |
| O=C(O)C(Cc1ccc(I)cc1)Nc1nc(-c2ccc(Cl)c(Cl)c2)cs1 (stereo not shown) [Compound 1, 2-((4-(3,4-Dichlorophenyl)thiazol-2-yl)amino)-3-(4-iodophenyl)propanoic acid] | No | No | No | Yes | No aggregation was observed | 6 | 50 (≈ 26 µg/mL) | 69.5 ± 1.2 | – | – | No | 5 ± 0.1 | inhibition at 50 µM (recombinant MtbUGM; [11]): > 90% |
| O=C(NS(=O)(=O)C(F)(F)F)C(Cc1ccc(I)cc1)Nc1nc(-c2ccc(Cl)c(Cl)c2)cs1 (stereo not shown) [Compound 3, 2-((4-(3,4-dichlorophenyl)thiazol-2-yl)amino)-3-(4-iodophenyl)-N-((trifluoromethyl)sulfonyl)propanamide] | – | – | – | – | – | 16 ± 10 | 50 (≈ 32.5 µg/mL) | 84.8 ± 2.2 | 100 | significantly inhibit | Yes | 7.7 ± 0.6 | Prevention of C. elegans maturation to adulthood and eventual proliferation (C. elegans [5]): show the ability to prevent C. elegans maturation to adulthood and eventual proliferation |
| O=C(NS(=O)(=O)c1ccc(Cl)cc1)C(Cc1ccc(I)cc1)Nc1nc(-c2ccc(Cl)c(Cl)c2)cs1 (stereo not shown) [Compound 8, N-((4-chlorophenyl)sulfonyl)-2-((4-(3,4-dichlorophenyl)thiazol-2-yl)amino)-3-(4-iodophenyl)propanamide] | – | – | – | – | – | 3 ± 1 | 12.5 (≈ 8.66 µg/mL) | 100 ± 0 | 250 | significantly inhibit | Yes | 6.3 ± 0.6 | – |
| O=C(NS(=O)(=O)c1ccc([N+](=O)[O-])cc1)C(Cc1ccc(I)cc1)Nc1nc(-c2ccc(Cl)c(Cl)c2)cs1 (stereo not shown) [Compound 5, 2-((4-(3,4-dichlorophenyl)thiazol-2-yl)amino)-3-(4-iodophenyl)-N-((4-nitrophenyl)sulfonyl)propanamide] | – | – | – | – | – | 4 ± 1 | 50 (≈ 35.2 µg/mL) | 93.2 ± 0.1 | 125 | significantly inhibit | Yes | 4.2 ± 0.3 | – |
| COc1ccc(S(=O)(=O)NC(=O)C(Cc2ccc(I)cc2)Nc2nc(-c3ccc(Cl)c(Cl)c3)cs2)cc1 (stereo not shown) [Compound 6, 2-((4-(3,4-dichlorophenyl)thiazol-2-yl)amino)-3-(4-iodophenyl)-N-((4-methoxyphenyl)sulfonyl)propanamide] | – | – | – | – | – | 18 ± 9 | 25 (≈ 17.2 µg/mL) | 92.4 ± 1.2 | – | – | No | 6 ± 0.1 | – |
| O=C(O)CC1Sc2nnc(Cc3ccc(Br)cc3)n2N=C1c1ccc(-c2ccccc2)cc1 (stereo not shown) [Compound 25, 2-(6-([1,1′-biphenyl]-4-yl)-3-(4-bromobenzyl)-7H-[1,2,4]triazolo[3,4-b][1,3,4]thiadiazin-7-yl)acetic acid] | – | – | – | – | – | – | – | – | – | – | – | – | MtbUGM activity in presence of compound (in words) (recombinant MtbUGM; 10 μM): completely ablated; inhibition at 10 µM (recombinant MtbUGM; 10 μM, mean of two replicates, read-out: % inhib MtbUGM (10 μM)): 100%; inhibition at 50 µM (recombinant MtbUGM; [10]): 100%; inhibition at 100 µM (recombinant MtbUGM; mean of two replicates): 100%; Effect of surfactant on relative inhibitor potency (recombinant MtbUGM; presence and absence of Tween80): insignificant; Aggregates by dynamic light scattering ([7]; 10 μM in PBS buffer): No aggregates were observed; Aggregates by dynamic light scattering ([7]; 100 μM in PBS buffer): No aggregates were observed |
| CS(=O)(=O)NC(=O)C(Cc1ccc(I)cc1)Nc1nc(-c2ccc(Cl)c(Cl)c2)cs1 (stereo not shown) [Compound 2, 2-((4-(3,4-dichlorophenyl)thiazol-2-yl)amino)-3-(4-iodophenyl)-N-(methylsulfonyl)propanamide] | No | No | No | No | No aggregation was observed | 12 ± 5 | 25 (≈ 14.9 µg/mL) | 80.7 ± 1.1 | 100 | significantly inhibit | Yes | 7 ± 0.1 | inhibition at 50 µM (recombinant MtbUGM; [11]): > 90%; Time until first rupture in bleach, sodium hydroxide solution (C. elegans [4]): enhances bleach sensitivity significantly; also recorded: statistically significant decrease; Prevention of C. elegans maturation to adulthood and eventual proliferation (C. elegans [5]): show the ability to prevent C. elegans maturation to adulthood and eventual proliferation |
